{"source": "patent US11654138B2", "about": "“Therapeutic agents for treating and preventing autoimmune diseases and cancer and a screening method” (KING FAISAL UNIVERSITY, priority 2019, dated 2023)", "key": {"[1]": {"target": "T1, Arid5a (Mus musculus, UniProt Q3U108)", "T1 construct": "Flag; expressed in transfected cells; host or cells: HEK293T", "T1 sequence (Q3U108 1-590)": "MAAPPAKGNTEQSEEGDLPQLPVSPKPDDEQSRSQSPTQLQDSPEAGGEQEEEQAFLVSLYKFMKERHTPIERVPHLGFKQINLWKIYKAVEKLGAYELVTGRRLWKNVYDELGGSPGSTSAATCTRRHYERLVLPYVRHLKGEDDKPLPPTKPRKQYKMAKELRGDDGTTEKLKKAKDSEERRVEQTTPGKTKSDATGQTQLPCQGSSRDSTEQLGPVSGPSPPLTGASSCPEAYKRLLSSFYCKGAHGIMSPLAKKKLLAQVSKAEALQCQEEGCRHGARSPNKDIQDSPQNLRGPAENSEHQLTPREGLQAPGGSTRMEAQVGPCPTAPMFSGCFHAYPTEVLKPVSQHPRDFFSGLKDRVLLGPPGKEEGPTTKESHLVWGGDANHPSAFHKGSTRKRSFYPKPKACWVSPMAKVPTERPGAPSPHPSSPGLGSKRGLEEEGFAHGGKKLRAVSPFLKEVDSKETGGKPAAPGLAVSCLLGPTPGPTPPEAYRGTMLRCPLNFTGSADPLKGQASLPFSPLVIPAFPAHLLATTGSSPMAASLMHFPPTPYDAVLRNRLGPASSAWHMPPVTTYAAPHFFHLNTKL", "assay": "Luciferase assay of Arid5a stabilizing function on 3′UTR of target mRNAs in HEK293T cells", "type": "cell-based", "experimental": "Briefly, HEK293T cells were transfected with luciferase pGL-3 and empty pcDNA3.1 plasmids (Control), or pGL-3 plasmid encoding the 3′UTR of OX40, Il6 or Stat3, together with Arid5a-expressing pcDNA3.1 plasmid. The cells were treated with DMSO (Control and Arid5a) or POE (10-60 μM) dissolved in DMSO. The mouse Arid5a (NP_001165676.1) cDNA (WT; ENSMUST00000115032.7) was cloned in a Flag-tagged pcDNA3.1 plasmid at Xba1 and Ecor1. Renilla-expressing plasmid was used as a control. Luciferase activity from cell lysates is shown relative to Control in FIGS. 1A-1C.\nHEK293 T cells (ATCC) were transfected (Lipofectamine LTX; Invitrogen) with luciferase pGL-3 and empty peDNA 3.1 plasmids (Control), or pGL-3 plasmid encoding the 3′UTR of IL6 together with Arid5a-expressing pcDNA3.1 plasmid. Renila-expressing plasmid was used as a Control. The cells were treated with DMSO (Control and Arid5a) or POE or its analogs A1-3 (40 μM; Aurora) dissolved in DMSO. The mouse Arid5a (NP_001165676.1) cDNA (WT; ENSMUST00000115032.7) was cloned in a Flag-tagged pcDNA3.1 plasmid at Xba1 and EcoR1.\nTo examine whether the Arid5a inhibitors interact with the target domain of Arid5a (Pocket X), substitution mutations were introduced to the wild-type (WT) Arid5a at Phe56, Tyr137 and His140 to produce mutant Arid5a (mArid5a). Mutations were introduced to substitute Phe56 with Cys, Tyr137 with Ala, and His140 with Ala. Luciferase activity from cell lysates was quantified using a Dual Luciferase kit (Promega) and the results were shown relative to the Control."}, "[2]": {"target": "T2, Pocket X-mutant Arid5a (Mus musculus, UniProt Q3U108, F56C/L84A/V134A/Y137A)", "T2 construct": "Flag; expressed in transfected cells; host or cells: HEK293T", "T2 sequence (Q3U108 1-590 F56C/L84A/V134A/Y137A)": "T1 sequence (Q3U108 1-590) with F56C, L84A, V134A, Y137A", "assay": "Luciferase assay on Pocket X-mutant Arid5a (Phe56, Leu84, Val134, Tyr137 substitutions)", "type": "cell-based", "conditions": "40 μM", "from_the_text": "Briefly, HEK293T cells were transfected with luciferase pGL-3 and empty pcDNA3.1 plasmids (Control), or pGL-3 plasmid encoding the 3′UTR of OX40, Il6 or Stat3, together with Arid5a-expressing pcDNA3.1 plasmid. Substitution mutations were introduced to the wild-type (WT) Arid5a at Phe56, Leu84, Val134 and Tyr137. Single point mutations were used to substitute Phe56 (TTC) with Cys (TGC) and Val134 (GTC) with Ala (GCC). Sequential point mutations were used to substitute Leu84 (CTG) with Ala (GCG) and Tyr137 (TAT) with Ala (GCT). Luciferase activity from cell lysates is shown relative to Control in FIGS. 2A-2C."}}, "note": "Changes are numbered by the printed parent chain.", "data": [{"smiles": "O=C(CSc1nnc(-c2ccncc2)o1)c1ccccc1", "note": "[POE, 1-Phenyl-2-(5-pyridin-4-yl-[1,3,4]oxadiazol-2-ylsulfanyl)-ethanone]", "values": [{"measurement": "Arid5a stabilizing function on Il6 3′UTR (luciferase activity relative to Control)", "setting": "[1]; 40 μM, HEK293 T cells, WT Arid5a, FIG. 6", "result": "abolished the stabilizing function of Arid5a"}, {"measurement": "Arid5a stabilizing function on the OX40 3′UTR (luciferase activity relative to Control)", "setting": "[1]; POE 10-60 μM, HEK293T cells, FIG. 1A", "result": "inhibits Arid5a stabilizing function"}, {"measurement": "Arid5a stabilizing function on the Il6 3′UTR (luciferase activity relative to Control)", "setting": "[1]; POE 10-60 μM, HEK293T cells, FIG. 1B", "result": "inhibits Arid5a stabilizing function"}, {"measurement": "Arid5a stabilizing function on the Stat3 3′UTR (luciferase activity relative to Control)", "setting": "[1]; POE 10-60 μM, HEK293T cells, FIG. 1C", "result": "inhibits Arid5a stabilizing function"}, {"measurement": "Inhibitory effect on stabilizing function of mutant Arid5a on OX40 3′UTR", "setting": "[2]; mutations at Phe56, Leu84, Val134, Tyr137, FIG. 2A", "result": "abolish the inhibitory effects of POE"}, {"measurement": "Inhibitory effect on stabilizing function of mutant Arid5a on Il6 3′UTR", "setting": "[2]; mutations at Phe56, Leu84, Val134, Tyr137, FIG. 2B", "result": "abolish the inhibitory effects of POE"}, {"measurement": "Inhibitory effect on stabilizing function of mutant Arid5a on Stat3 3′UTR", "setting": "[2]; mutations at Phe56, Leu84, Val134, Tyr137, FIG. 2C", "result": "abolish the inhibitory effects of POE"}]}]}
